Measurements reported in patent publication US6030960A, “Method of treating hepatitis virus infections” (priority 1998, dated 2000).
Where two headings read alike, the source gives them in different places.

Tests used:
[1] = Cytotoxicity of alkyl lipids, neutral red dye uptake (Table 1); type: cell-based; details: human, hep-g2 cells
Description: Initially, evaluations of the alkyl lipids were done to determine whether the compounds were cytotoxic to the cells at concentrations having anti-HBV activity. The assay methodology is szt forth in Korba and Germ, Antiviral Res., 19, 55-70 (1992), incorporated by reference herein. Briefly, these cell cytotoxicity evaluations were done in 96-well plates seeded with HEP-G2 cell monolayers. The hepatoblastoma cell line HEP-G2 transfected with a plasmid carrying the gene that confers resistance to […] and four 5'-3' tandem copies of the Hepatitis B virus genome was obtained from Dr. George Acs. Proc. Natl. Acad. Sci. USA, 84, 1005-1009 (1987). Serial concentrations of compound were added to the RPMI-1640 growth medium and the growth medium was added to the 96-well plates containing the cell monolayers. The cells were incubated for a total of nine days at 37° C. The compound-containing medium was periodically replaced. Each compound was tested at four serial concentrations in triplicate. After nine days of treatment and incubation, 0.01% neutral red dye (Sigma, Inc.) was added to the overlay medium. Cell cytotoxicity was quantitated by measuring the average A510. Values in Table 1 represent the percentage of average A510 values (±standard deviation) relative to nine non-treated control wells.

Hepatitis B virus = experiment: Anti-hepatitis B virus activity in HEP-G2 cells persistently infected with HBV (Table 2); type: cell-based; details: 10 μM; for activity against HBV-induced virion DNA and HBeAg syntheses: in words; for activity at 10 µM: Hepatitis B virus, HepG2, 216 h, 9 days treatment
Description: HEP-G2 cells persistently infected with HBV were treated daily with fresh D-MEM containing 20% FBS and 10 μM compound. After 9 days incubation and treatment, the overlay medium was harvested to assay the quantity of Hepatitis B virus s antigen (HBsAg) and HBeAg by EIA (Abbott Laboratories). The overlay medium was diluted to levels of antigen in the linear range of the assay. Standard curves using dilutions of positive HBsAg and HBeAg controls were included in each assay. Virion DNA was assayed using the method set forth in Korba and Gerin, Antiviral Res., 19, 5,5-70 (1992), incorporated by reference herein. HBV DNA was extracted from the overlay medium containing virus particles and analyzed by a slot-blot hybridization technique using ^32 P-labelled 3.2 Kb Eco R1 HBV DNA fragment by comparisons to HBV standards present on nitrocellulose filters using an AMBIS beta scanner. EC90 values (90% effective concentration, i.e., drug concentration which induces a 90% decrease in the levels of HBV DNA replication intermediates in treated versus control cells) were calculated by linear regression analysis. The relative levels of HBsAg, HBeAg and virion DNA were calulated as a percentage of the average levels obtained from the untreated controls.

[2] = read-out: Relative Level of HBeAg
[3] = read-out: Relative Level of HBsAg
[4] = read-out: Relative Level of Virion DNA

In the case of `CCCCCCCCCCCCCCCCCC(=O)NCC(COP(=O)([O-])OCC[N+](C)(C)C)OC` (stereo not shown) [CP-50], the cytotoxicity at 216 h, 30 µM [1] is reported as 0%, the cytotoxicity at 216 h, 100 µM [1] is reported as 5% and the viability at 216 h, 3 µM [1] is reported as 97 ± 2%. The viability at 216 h, 10 µM [1] was 99 ± 2%, the viability at 216 h, 30 µM [1] was 100 ± 3% and the viability at 216 h, 100 µM [1] was 95 ± 2%. The “activity against HBV-induced virion DNA and HBeAg syntheses” value (Hepatitis B virus) was “no significant activity”, the activity at 10 µM (Hepatitis B virus; [2]) was 93% and the activity at 10 µM (Hepatitis B virus; [3]) was 104%. For the same compound, the activity at 10 µM (Hepatitis B virus; [4]) was 88%.
With `CCCCCCCCCCCCCCCC(=O)NCC(COP(=O)([O-])OCC[N+](C)(C)C)OC` (stereo not shown) [CP-48] the cytotoxicity at 216 h, 30 µM [1] was 39%, the viability at 216 h, 3 µM [1] was 102 ± 1% and the viability at 216 h, 10 µM [1] was 97 ± 1%. The viability at 216 h, 30 µM [1] was 61 ± 2%, the viability at 216 h, 100 µM [1] was 24 ± 1% and the “activity against HBV-induced virion DNA and HBeAg syntheses” value (Hepatitis B virus) was “no significant activity”. It also gave an activity at 10 µM (Hepatitis B virus; [2]) of 88%, an activity at 10 µM (Hepatitis B virus; [3]) of 73% and an activity at 10 µM (Hepatitis B virus; [4]) of 96%.
